{
  "source": "patent EP0111413A1",
  "about": "“Novel sulfone, process for its preparation, composition containing it and use thereof” (priority 1982, dated 1984)",
  "key": {"Pseudomonas aeruginosa": {"system": "Pseudomonas aeruginosa", "assay": "Minimum Inhibitory Concentration test in nutrient broth (bacterial)", "assay_type": "cell-based", "design": "key: + = Growth; - = No Growth", "method": "(§1) A Minimum Inhibitory Concentration test with bacteria and fungus was performed in nutrient broth. The test compound was added to sterile broth at 0.1% (1000PPM) and diluted sequentially with sterile broth to yield required levels. One drop of an actively-growing 24-hour culture was added to each level and incubated for a period of 24 hours at a temperature of 30°C. At the end of the time period, an aliquot from each tube was placed on nutrient agar and observed for growth."}, "Alternaria solani": {"system": "Alternaria solani", "assay": "Minimum Inhibitory Concentration test in nutrient broth (fungal)", "assay_type": "cell-based", "design": "key: + = Growth; - = No Growth", "method": "as §1"}, "Annual morning glory": {"system": "Annual morning glory", "assay": "Postemergence herbicidal test", "assay_type": "in vivo, Ipomoea purpurea", "conditions": "Application rate 4.0 lb/A, postemergence spray, rated visually nineteen days later", "source_text": "(§2) Aluminum planting flats measuring 15.2 x 22.9 x 8.9 cm were filled to a depth of 7.6 cm with loamy sand soil, containing 50 parts per million (ppm) each of the commercial fungicide cis-N(trichloromethyl)thio -4-cyclohexane-l,2-dicarboximide (Captan®) and 17-17-17 fertilizer (percentages of N-P2O5-K2O) on a weight basis). Several rows were impressed across the width of each flat and a variety of seeds of both grass and broadleaf weed species were planted, one species per row. The weed species used are listed below:\n(§3) The broad leaf species were seeded first, and the grasses were seeded four days later. Ample seeds of each species were planted to produce 20 to 50 seedlings per row after emergence, depending on the size of each plant.\n(§4) Ten days after the grasses were seeded, the emerged seedlings of all species were sprayed with aqueous solutions of the test compounds. The solutions were prepared to such dilutions that a spray rate of 80 gallons per acre (750 liters per hectare) gave from 0.5 to 4.0 pounds of test compound per acre (0.56 to 4.48 kilograms per hectare) as desired for each test. Additional flats not treated at all were used as standards for measuring the extent of weed control in the treated flats. […]"}, "Velvetleaf": {"system": "Velvetleaf", "assay": "Postemergence herbicidal test", "assay_type": "in vivo, Abutilon theophrasti", "conditions": "Application rate 4.0 lb/A, postemergence spray, rated visually nineteen days later", "source_text": "as §2, §3, §4"}, "Mustard": {"system": "Mustard", "assay": "Postemergence herbicidal test", "assay_type": "in vivo, Brassica sp.", "conditions": "Application rate 4.0 lb/A, postemergence spray, rated visually nineteen days later", "source_text": "as §2, §3, §4"}, "Foxtail": {"system": "Foxtail", "assay": "Postemergence herbicidal test", "assay_type": "in vivo, Setaria sp.", "conditions": "Application rate 4.0 lb/A, postemergence spray, rated visually nineteen days later", "source_text": "as §2, §3, §4"}, "Watergrass": {"system": "Watergrass", "assay": "Postemergence herbicidal test", "assay_type": "in vivo, Echinochloa crusgalli", "conditions": "Application rate 4.0 lb/A, postemergence spray, rated visually nineteen days later", "source_text": "as §2, §3, §4"}, "Wild oat": {"system": "Wild oat", "assay": "Postemergence herbicidal test", "assay_type": "in vivo, Avena fatua", "conditions": "Application rate 4.0 lb/A, postemergence spray, rated visually nineteen days later", "source_text": "as §2, §3, §4"}, "[1]": {"conditions": "62.5 PPM, buffered to pH 6.8, 24 hours at 30°C"}, "[2]": {"conditions": "62.5 PPM, pH 4, 24 hours at 30°C"}, "[3]": {"conditions": "125 PPM, buffered to pH 6.8, 24 hours at 30°C"}, "[4]": {"conditions": "125 PPM, pH 4, 24 hours at 30°C"}, "[5]": {"conditions": "250 PPM, buffered to pH 6.8, 24 hours at 30°C"}, "[6]": {"conditions": "250 PPM, pH 4, 24 hours at 30°C"}, "[7]": {"conditions": "500 PPM, buffered to pH 6.8, 24 hours at 30°C"}, "[8]": {"conditions": "500 PPM, pH 4, 24 hours at 30°C"}, "[9]": {"conditions": "1000 PPM, buffered to pH 6.8, 24 hours at 30°C"}, "[10]": {"conditions": "1000 PPM, pH 4, 24 hours at 30°C"}},
  "data": [
    {"smiles": "CS(=O)(=O)CC(Cl)C#N", "note": "(centres unmarked) [Compound 1, 3-(methylsulfonyl)-2-chloropropanenitrile]", "values": [
      {"measurement": "Growth", "setting": "Pseudomonas aeruginosa; [1]", "value": "-"},
      {"measurement": "Growth", "setting": "Pseudomonas aeruginosa; [2]", "value": "-"},
      {"measurement": "Growth", "setting": "Pseudomonas aeruginosa; [3]", "value": "-"},
      {"measurement": "Growth", "setting": "Pseudomonas aeruginosa; [4]", "value": "-"},
      {"measurement": "Growth", "setting": "Pseudomonas aeruginosa; [5]", "value": "-"},
      {"measurement": "Growth", "setting": "Pseudomonas aeruginosa; [6]", "value": "-"},
      {"measurement": "Growth", "setting": "Pseudomonas aeruginosa; [7]", "value": "-"},
      {"measurement": "Growth", "setting": "Pseudomonas aeruginosa; [8]", "value": "-"},
      {"measurement": "Growth", "setting": "Pseudomonas aeruginosa; [9]", "value": "-"},
      {"measurement": "Growth", "setting": "Pseudomonas aeruginosa; [10]", "value": "-"},
      {"measurement": "Growth", "setting": "Alternaria solani; [1]", "value": "+"},
      {"measurement": "Growth", "setting": "Alternaria solani; [2]", "value": "+"},
      {"measurement": "Growth", "setting": "Alternaria solani; [3]", "value": "+"},
      {"measurement": "Growth", "setting": "Alternaria solani; [4]", "value": "-"},
      {"measurement": "Growth", "setting": "Alternaria solani; [5]", "value": "-"},
      {"measurement": "Growth", "setting": "Alternaria solani; [6]", "value": "-"},
      {"measurement": "Growth", "setting": "Alternaria solani; [7]", "value": "-"},
      {"measurement": "Growth", "setting": "Alternaria solani; [8]", "value": "-"},
      {"measurement": "Growth", "setting": "Alternaria solani; [9]", "value": "-"},
      {"measurement": "Growth", "setting": "Alternaria solani; [10]", "value": "-"},
      {"measurement": "Percent Control A", "setting": "Annual morning glory", "value": 75, "unit": "%"},
      {"measurement": "Percent Control D", "setting": "Velvetleaf", "value": 75, "unit": "%"},
      {"measurement": "Percent Control E", "setting": "Mustard", "value": 40, "unit": "%"},
      {"measurement": "Percent Control J", "setting": "Foxtail", "value": 75, "unit": "%"},
      {"measurement": "Percent Control L", "setting": "Watergrass", "value": 65, "unit": "%"},
      {"measurement": "Percent Control N", "setting": "Wild oat", "value": 30, "unit": "%"}
    ]}
  ]
}
